Measurements taken from US20200163984A1, “USE OF ISOVALERYL SPIRAMYCIN I, II AND/OR III IN MANUFACTURING MEDICAMENT FOR TREATING AND/OR PREVENTING TUMOR, AND MEDICAMENT” (SHENYANG FUYANG PHARMACEUTICAL TECHNOLOGY CO., LTD., priority 2017, published 2020).

Assays:
[1] = tested on: transplanted tumor of human large cell lung cancer H460 cells; assay: H460 transplanted tumor in nude mice
Procedure: (§1) Then cell concentration was adjusted to 1×10^7/ml with matrigel, then each nude mouse was inoculated subcutaneously with 0.2 ml of cells at its right armpit and recorded as the first day of inoculation. When the tumor grows to be greater than or equal to 100 mm^3, the mice were randomly divided into 11 groups with 6 mice in each group: isovaleryl spiramycin I groups with doses of 25, 50 and 100 mg/kg, isovaleryl spiramycin II groups with doses of 25, 50 and 100 mg/kg, and isovaleryl spiramycin III groups with doses of 25, 50 and 100 mg/kg. Each group was continuously administered intragastrically for 30 days with a dose of 20 ml/kg. The mice were sacrificed the next day after drug withdrawal and the indicators were tested. The long diameter and short diameter of the tumor, and the body weight of each mouse were recorded every 3 days from drug administration to nude mouse sacrifice.
(§2) The body weight of the nude mice and the long diameter (a) and short diameter (b) of the transplanted tumor were measured every 3 days, and the tumor volume (v), relative tumor volume (RTV) and relative tumor proliferation rate (T/C) are calculated respectively according to the following formulas, wherein V=a×b^2/2; RTV=V/V0 (V0 is the tumor volume before administration, V is the tumor volume before sacrifice), and T/C (%)=treatment group RTV/model control group RTV×100%.
(§3) Each mouse was weighed and sacrificed. After the tumor was completely stripped off from the body of the mouse, the non-tumor tissues such as blood stains and fat were removed to weigh the tumor and calculate the tumor growth inhibition rate. The average tumor weight of each group of mice is used as an indicator of efficacy. Tumor growth inhibition rate (%)=(1−the average tumor weight of the treatment group/the average tumor weight of the model group)×100%.

[2] = tested on: transplanted tumor of human renal cell adenocarcinoma cell 769-P; assay: 769-P transplanted tumor in nude mice; conditions: for Tumor Volume (mm3) (d 1): d1
Procedure: as §1, with “group: a model group, a cyclophosphamide group,” for “group:”, “the” for “the body”
as §2, §3

[3] = tested on: transplanted tumor of human thyroid cancer cell TPC-1; assay: TPC-1 transplanted tumor in nude mice; conditions: for Tumor Volume (mm3) (d30): d 30
Procedure: as §1, §2, §3

[4] = Thymus index and spleen index of H22 liver cancer tumor-bearing mice
Procedure: In the H22 liver cancer model, the mice inoculated with the tumor were randomly divided into groups with 10 mice in each group on the next day of inoculation. The groups included: a model control group, a positive drug cyclophosphamide control group (CTX, 26 mg/kg), isovaleryl spiramycin I groups with doses of 13, 26 and 52 mg/kg; isovaleryl spiramycin II groups with doses of 13, 26 and 52 mg/kg; isovaleryl spiramycin III groups with doses of 13, 26 and 52 mg/kg. Each group was continuously administered intragastrically for 7 days with a dose of 20 ml/kg.

[5] = H460, 25 mg/kg (low dose) i.g. 30 days
[6] = H460, 50 mg/kg (medium dose) i.g. 30 days
[7] = H460, 100 mg/kg (high dose) i.g. 30 days
[8] = 769-P, high dose (100 mg/kg in method) i.g. 30 days
[9] = 769-P, low dose (25 mg/kg in method) i.g. 30 days
[10] = 769-P, medium dose (50 mg/kg in method) i.g. 30 days
[11] = TPC-1, high dose (100 mg/kg in method) i.g. 30 days
[12] = TPC-1, low dose (25 mg/kg in method) i.g. 30 days
[13] = TPC-1, medium dose (50 mg/kg in method) i.g. 30 days

With `CCC(=O)O[C@@H]1CC(=O)O[C@H](C)C/C=C/C=C/[C@H](O[C@H]2CC[C@H](N(C)C)[C@@H](C)O2)[C@H](C)C[C@H](CC=O)[C@H](O[C@@H]2O[C@H](C)[C@@H](O[C@H]3C[C@@](C)(O)[C@@H](OC(=O)CC(C)C)[C@H](C)O3)[C@H](N(C)C)[C@H]2O)[C@H]1OC` [Isovaleryl spiramycin III, isovaleryl spiramycin III] the “Inhibition Rate (tumor growth inhibition rate)” value [1, 5] was 17.41%, the “Relative Tumor Proliferation Rate (T/C)” value [1, 5] was 63.03% and the “Relative Tumor Volume (RTV)” value [1, 5] was 6.62 ± 2.34. For the same molecule, the “Tumor Volume (d 1)” value [1, 5] was 140.44 ± 14.04 mm3, the “Tumor Volume (d 30)” value [1, 5] was 914.05 ± 279.14 mm3 and the “Tumor Weight” value [1, 5] was 1.42 ± 0.26 g. For the same molecule, the “Inhibition Rate (tumor growth inhibition rate)” value [1, 6] was 23.31%, the “Relative Tumor Proliferation Rate (T/C)” value [1, 6] was 42.54% and the “Relative Tumor Volume (RTV)” value [1, 6] was 4.47 ± 0.94. For the same molecule, the “Tumor Volume (d 1)” value [1, 6] was 148.59 ± 14.47 mm3, the “Tumor Volume (d 30)” value [1, 6] was 666.74 ± 160.61 mm3 and the “Tumor Weight” value [1, 6] was 1.32 ± 0.25 g. The “Inhibition Rate (tumor growth inhibition rate)” value [1, 7] was 63.93%, the “Relative Tumor Proliferation Rate (T/C)” value [1, 7] was 35.95% and the “Relative Tumor Volume (RTV)” value [1, 7] was 3.78 ± 0.84. For the same molecule, the “Tumor Volume (d 1)” value [1, 7] was 143.19 ± 17.40 mm3, the “Tumor Volume (d 30)” value [1, 7] was 531.56 ± 78.33 mm3 and the “Tumor Weight” value [1, 7] was 0.62 ± 0.26 g. For the same molecule, the “tumor volume and relative tumor volume compared with the model group” value (shortened to “tumor volume and relative tumor volume”) ([1]; H460, low, medium and high doses, P<0.05) was “significantly lower”, the “mouse weight compared with the model group” value ([1]; mouse, in vivo) was “no significant changes” and the “Inhibition Rate (%)” value ([2]; 769-P nude mice, 25 mg/kg) was 40.87%. For the same molecule, the “Relative Tumor Proliferation Rate (T/C)” value ([2]; 769-P nude mice, 25 mg/kg) was 61.59%, the “Relative Tumor Volume (RTV)” value ([2]; 769-P nude mice, 25 mg/kg) was 11.37 ± 1.469 and the “Tumor Weight” value ([2]; 769-P nude mice, 25 mg/kg) was 1.22 ± 0.46 g. The “Tumor Volume (mm3) (d 1)” value ([2]; 769-P nude mice, 25 mg/kg) was 146.32 ± 43.02 mm3, the “Tumor Volume (mm3) (d30)” value ([2]; 769-P nude mice, 25 mg/kg) was 1663.32 ± 445.50 mm3 and the “Inhibition Rate (%)” value ([2]; 769-P nude mice, 50 mg/kg) was 60.50%. For the same molecule, the “Relative Tumor Proliferation Rate (T/C)” value ([2]; 769-P nude mice, 50 mg/kg) was 51.59%, the “Relative Tumor Volume (RTV)” value ([2]; 769-P nude mice, 50 mg/kg) was 9.52 ± 1.67 and the “Tumor Weight” value ([2]; 769-P nude mice, 50 mg/kg) was 0.82 ± 0.06 g. For the same molecule, the “Tumor Volume (mm3) (d 1)” value ([2]; 769-P nude mice, 50 mg/kg) was 180.43 ± 51.70 mm3, the “Tumor Volume (mm3) (d30)” value ([2]; 769-P nude mice, 50 mg/kg) was 1717.76 ± 524.33 mm3 and the “Inhibition Rate (%)” value ([2]; 769-P nude mice, 100 mg/kg) was 64.46%. For the same molecule, the “Relative Tumor Proliferation Rate (T/C)” value ([2]; 769-P nude mice, 100 mg/kg) was 36.55%, the “Relative Tumor Volume (RTV)” value ([2]; 769-P nude mice, 100 mg/kg) was 6.56 ± 0.28 and the “Tumor Weight” value ([2]; 769-P nude mice, 100 mg/kg) was 0.73 ± 0.08 g. For the same molecule, the “Tumor Volume (mm3) (d 1)” value ([2]; 769-P nude mice, 100 mg/kg) was 104.38 ± 12.92 mm3, the “Tumor Volume (mm3) (d30)” value ([2]; 769-P nude mice, 100 mg/kg) was 684.88 ± 62.28 mm3 and the “Relative Tumor Proliferation Rate (T/C)” value [2, 8] was 35.55%. The “tumor growth inhibition rate” value [2, 8] was 64.46%, the “Relative Tumor Proliferation Rate (T/C)” value [2, 9] was 61.59% and the “tumor growth inhibition rate” value [2, 9] was 40.87%. The “tumor volume and relative tumor volume” value ([2]; 769-P, low, medium and high doses, P<0.05) was “significantly lower”, the “Relative Tumor Proliferation Rate (T/C)” value [2, 10] was 51.59% and the “tumor growth inhibition rate” value [2, 10] was 60.50%. For the same molecule, the “mouse weight compared with the model group” value ([2]; mouse, in vivo) was “no significant changes”, the “Body Weight (g) (d1)” value ([2]; mouse, in vivo, 25 mg/kg) was 23.09 ± 1.90 g and the “Body Weight (g) (d30)” value ([2]; mouse, in vivo, 25 mg/kg) was 22.72 ± 0.78 g. The “Body Weight (g) (d1)” value ([2]; mouse, in vivo, 50 mg/kg) was 22.90 ± 1.00 g, the “Body Weight (g) (d30)” value ([2]; mouse, in vivo, 50 mg/kg) was 21.43 ± 1.08 g and the “Body Weight (g) (d1)” value ([2]; mouse, in vivo, 100 mg/kg) was 20.49 ± 1.14 g. The “Body Weight (g) (d30)” value ([2]; mouse, in vivo, 100 mg/kg) was 22.28 ± 1.72 g, the “Relative Tumor Proliferation Rate (T/C)” value [3, 11] was 34.75% and the “tumor growth inhibition rate” value [3, 11] was 62.94%. The “Relative Tumor Proliferation Rate (T/C)” value [3, 12] was 61.93%, the “tumor growth inhibition rate” value [3, 12] was 39.06% and the “tumor volume and relative tumor volume” value ([3]; TPC-1, low, medium and high doses, P<0.05) was “significantly lower”. The “Relative Tumor Proliferation Rate (T/C)” value [3, 13] was 45.01%, the “tumor growth inhibition rate” value [3, 13] was 60.25% and the “Inhibition Rate (%)” value ([3]; dose 25 mg/kg) was 39.06%. The “Relative Tumor Proliferation Rate (T/C)” value ([3]; dose 25 mg/kg) was 61.93%, the “Relative Tumor Volume (RTV)” value ([3]; dose 25 mg/kg) was 10.19 ± 2.79 and the “Tumor Weight” value ([3]; dose 25 mg/kg) was 1.47 ± 0.44 g. For the same molecule, the “Tumor Volume (mm3) (d 1)” value ([3]; dose 25 mg/kg) was 119.35 ± 3.84 mm3, the “Tumor Volume (mm3) (d30)” value ([3]; dose 25 mg/kg) was 1210.76 ± 295.50 mm3 and the “Inhibition Rate (%)” value ([3]; dose 50 mg/kg) was 60.25%. The “Relative Tumor Proliferation Rate (T/C)” value ([3]; dose 50 mg/kg) was 45.01%, the “Relative Tumor Volume (RTV)” value ([3]; dose 50 mg/kg) was 7.41 ± 2.51 and the “Tumor Weight” value ([3]; dose 50 mg/kg) was 0.96 ± 0.43 g. For the same molecule, the “Tumor Volume (mm3) (d 1)” value ([3]; dose 50 mg/kg) was 116.75 ± 5.22 mm3, the “Tumor Volume (mm3) (d30)” value ([3]; dose 50 mg/kg) was 866.73 ± 306.25 mm3 and the “Inhibition Rate (%)” value ([3]; dose 100 mg/kg) was 62.94%. For the same molecule, the “Relative Tumor Proliferation Rate (T/C)” value ([3]; dose 100 mg/kg) was 34.75%, the “Relative Tumor Volume (RTV)” value ([3]; dose 100 mg/kg) was 5.72 ± 3.04 and the “Tumor Weight” value ([3]; dose 100 mg/kg) was 0.90 ± 0.44 g. For the same molecule, the “Tumor Volume (mm3) (d 1)” value ([3]; dose 100 mg/kg) was 115.43 ± 7.58 mm3, the “Tumor Volume (mm3) (d30)” value ([3]; dose 100 mg/kg) was 654.78 ± 338.68 mm3 and the “mouse weight compared with the model group” value ([3]; mouse, in vivo) was “no significant changes”. The “Body Weight (g) (d1)” value ([3]; mouse, in vivo, 25 mg/kg) was 21.13 ± 1.48 g, the “Body Weight (g) (d30)” value ([3]; mouse, in vivo, 25 mg/kg) was 23.49 ± 1.02 g and the “Body Weight (g) (d1)” value ([3]; mouse, in vivo, 50 mg/kg) was 21.43 ± 1.85 g. The “Body Weight (g) (d30)” value ([3]; mouse, in vivo, 50 mg/kg) was 24.06 ± 1.71 g, the “Body Weight (g) (d1)” value ([3]; mouse, in vivo, 100 mg/kg) was 20.76 ± 2.13 g and the “Body Weight (g) (d30)” value ([3]; mouse, in vivo, 100 mg/kg) was 23.72 ± 1.60 g. For the same molecule, the “Spleen Index (%)” value ([4]; dose 13 mg/kg) was 0.68 ± 0.15%, the “Thymus Index (%)” value ([4]; dose 13 mg/kg) was 0.15 ± 0.06% and the “Spleen Index (%)” value ([4]; dose 26 mg/kg) was 0.66 ± 0.21%. The “Thymus Index (%)” value ([4]; dose 26 mg/kg) was 0.15 ± 0.05%, the “Spleen Index (%)” value ([4]; dose 52 mg/kg) was 0.65 ± 0.26% and the “Thymus Index (%)” value ([4]; dose 52 mg/kg) was 0.13 ± 0.02%.
